Reference: paper PMC10539501 (Nature Communications, 2023)
Starred links: 1 amine or outer side, 2 acyl side, 3 side chain; linkers in the order of their positions; H or OH if unused. Non-standard residues stand in square brackets, D forms with d. Residues, ends and D or L forms follow the SMILES beside them. X6 = O=C([C@H](Cc1ccc(O)cc1)NC(=S)[C@H]1CCCN1[*:1])[*:2]; X5 = CC(C)C[C@H](NC(=S)[C@H](CC(C)C)N[*:1])C(=O)[*:2]; NMeY = CN[C@@H](Cc1ccc(O)cc1)C(=O)O; NMeL = CN[C@@H](CC(C)C)C(=O)O; dNMeL = CN[C@H](CC(C)C)C(=O)O

Experiments:
[1] = PAMPA passive permeability; format: in vitro ADME;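 note: passive permeability across an artificial membrane in 96-well pre-coated PAMPA plates, which lack transporters and efflux systems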
Experimental: Encouraged by this, the passive permeability of the analogs was evaluated using an artificial membrane (PAMPA), which measures permeability of compounds in the absence of transporters and efflux systems[32].
96-well BD Corning® pre-coated PAMPA plates were used following the supplier’s protocol, details in Supplementary Information.

[2] = format: physicochemical
in vitro [3] = conditions: both, human, plasma
physchem = conditions: pH 7.4
in vitro [4] = conditions: both, human, plasma; remark: listed apart in the source
pepsin = pepsin (Sus scrofa, UniProt P00791); experiment: in vitro; conditions: simulated gastric fluid, pH 1.2
Chain of pepsin (P00791 60-385): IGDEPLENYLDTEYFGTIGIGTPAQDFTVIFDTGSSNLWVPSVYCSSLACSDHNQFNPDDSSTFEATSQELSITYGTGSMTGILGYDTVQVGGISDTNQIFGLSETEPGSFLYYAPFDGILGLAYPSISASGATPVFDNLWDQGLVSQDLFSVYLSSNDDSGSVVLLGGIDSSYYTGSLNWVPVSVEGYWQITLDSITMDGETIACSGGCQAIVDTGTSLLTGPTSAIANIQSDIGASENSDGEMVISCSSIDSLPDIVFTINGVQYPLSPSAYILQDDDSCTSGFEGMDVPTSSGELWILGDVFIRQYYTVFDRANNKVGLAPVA
Experimental: (§1) A stability assessment of the peptides was done in simulated gastric (SGF) and intestinal (SIF) fluids and human liver microsomes. The degradation kinetics of the aliquoted samples at desired time points were analyzed through RP-HPLC.

in vitro [5] = conditions: pig, simulated intestinal fluid
in vitro [6] = conditions: human, microsomes
Experimental: as §1

[7] = format: physicochemical; remark: listed apart in the source

Experimental for human liver microsomes: as §1

C[C@@H](O)[C@@H]1NC(=O)[C@H](CCCCN)NC(=O)[C@@H](Cc2c[nH]c3ccccc23)NC(=S)[C@H](Cc2ccccc2)NC(=O)[C@@H]2CCCN2C(=O)[C@H](Cc2ccccc2)NC1=O [13f]
Papp ([1]; Pe): 1.51 ×10⁻⁶ cm/s | logD heptane ethylene glycol [2]: -0.91 | half-life (in vitro [3]): 16 h | logD (physchem): -0.93 | fraction unbound (in vitro [4]): 0.05

CC(C)C[C@@H]1NC(=O)[C@@H](CC(C)C)NC(=O)[C@H](CC(C)C)NC(=O)[C@H](Cc2ccc(O)cc2)N(C)C(=O)[C@H]2CCCN2C(=O)[C@H](CC(C)C)NC1=O [10j] (cyclo(LL[dP][NMeY]L[dL]))
Papp ([1]; Pe Avg): 4.59 ×10⁻⁶ cm/s | half-life (in vitro [3]): 11 h | remaining at 2 h (in vitro [3]): 75% | remaining at 4 h (in vitro [3]): 61% | remaining at 8 h (in vitro [3]): 56% | remaining at 16 h (in vitro [3]): 38% | remaining at 24 h (in vitro [3]): 25% | remaining at 48 h (in vitro [3]): 9% | remaining at 72 h (in vitro [3]): 4% | half-life (pepsin): 0.367 h | remaining at 2 min (pepsin): 86% | remaining at 10 min (pepsin): 78% | remaining at 20 min (pepsin): 59% | remaining at 0.5 h (pepsin): 32% | remaining at 1 h (pepsin): 10% | remaining at 2 h (pepsin): 1% | remaining at 4 h (pepsin): 0% | remaining at 8 h (pepsin): 0% | remaining at 12 h (pepsin): 0% | half-life (in vitro [5]): 0.583 h | remaining at 10 min (in vitro [5]): 70% | remaining at 0.5 h (in vitro [5]): 58% | remaining at 1 h (in vitro [5]): 38% | remaining at 2 h (in vitro [5]): 21% | remaining at 4 h (in vitro [5]): 4.54% | remaining at 8 h (in vitro [5]): 0.525% | remaining at 12 h (in vitro [5]): 0% | logD (physchem): 0.98 | microsomal CLint (in vitro [6]): 49 µL/min/mg | remaining at 2 min (in vitro [6]): 91% | remaining at 10 min (in vitro [6]): 77% | remaining at 20 min (in vitro [6]): 73% | remaining at 0.5 h (in vitro [6]): 46% | remaining at 0.75 h (in vitro [6]): 35% | remaining at 1 h (in vitro [6]): 9% | fraction unbound (in vitro [4]): 0.21 | Half lives (human liver microsomes): 28.7

CC(C)C[C@@H]1NC(=O)[C@@H](CC(C)C)N(C)C(=O)[C@H](CC(C)C)NC(=O)[C@H](Cc2ccc(O)cc2)NC(=O)[C@H]2CCCN2C(=O)[C@H](CC(C)C)NC1=O [10g] (cyclo(LL[dP]YL[dNMeL]))
Papp ([1]; Pe Avg): 2.75 ×10⁻⁶ cm/s | half-life (in vitro [3]): 15 h | remaining at 2 h (in vitro [3]): 92% | remaining at 4 h (in vitro [3]): 83% | remaining at 8 h (in vitro [3]): 69% | remaining at 16 h (in vitro [3]): 51% | remaining at 24 h (in vitro [3]): 28% | remaining at 48 h (in vitro [3]): 22% | remaining at 72 h (in vitro [3]): 13% | half-life (pepsin): 0.325 h | remaining at 2 min (pepsin): 85% | remaining at 10 min (pepsin): 65% | remaining at 20 min (pepsin): 45% | remaining at 0.5 h (pepsin): 38% | remaining at 1 h (pepsin): 24% | remaining at 2 h (pepsin): 9% | remaining at 4 h (pepsin): 0% | remaining at 8 h (pepsin): 0% | remaining at 12 h (pepsin): 0% | half-life (in vitro [5]): 0.333 h | remaining at 10 min (in vitro [5]): 67% | remaining at 0.5 h (in vitro [5]): 41% | remaining at 1 h (in vitro [5]): 22% | remaining at 2 h (in vitro [5]): 10% | remaining at 4 h (in vitro [5]): 0% | remaining at 8 h (in vitro [5]): 0% | remaining at 12 h (in vitro [5]): 0% | logD (physchem): 1.01 | microsomal CLint (in vitro [6]): 83 µL/min/mg | remaining at 2 min (in vitro [6]): 89% | remaining at 10 min (in vitro [6]): 67% | remaining at 20 min (in vitro [6]): 41% | remaining at 0.5 h (in vitro [6]): 25% | remaining at 0.75 h (in vitro [6]): 16% | remaining at 1 h (in vitro [6]): 8% | fraction unbound (in vitro [4]): 0.35 | Half lives (human liver microsomes): 16.8

CC(C)C[C@@H]1NC(=O)[C@H](Cc2ccc(O)cc2)NC(=S)[C@H]2CCCN2C(=O)[C@H](CC(C)C)NC(=O)[C@H](CC(C)C)NC(=O)[C@@H](CC(C)C)NC1=O [10d] (cyclo(LL[X6]L[dL]))
Pe Avg [1]: 4.2 ×10⁻⁶ cm/s | Pe set1 [1]: 2.03 ×10⁻⁶ cm/s | Pe set2 [1]: 5.97 ×10⁻⁶ cm/s | Pe set3 [1]: 4.7 ×10⁻⁶ cm/s | Papp ([1]; Pe Avg): 4.2 ×10⁻⁶ cm/s | logD heptane ethylene glycol [2]: 0.72 | half-life (in vitro [3]): 20 h | remaining at 1 h (in vitro [3]): 86% | remaining at 3 h (in vitro [3]): 81% | remaining at 5 h (in vitro [3]): 78% | remaining at 7 h (in vitro [3]): 63% | remaining at 9 h (in vitro [3]): 59% | remaining at 12 h (in vitro [3]): 64% | remaining at 24 h (in vitro [3]): 46% | remaining at 36 h (in vitro [3]): 35% | remaining at 48 h (in vitro [3]): 31% | remaining at 60 h (in vitro [3]): 21% | remaining at 72 h (in vitro [3]): 19% | half-life (pepsin): 0.4 h | remaining at 5 min (pepsin): 75% | remaining at 10 min (pepsin): 66% | remaining at 20 min (pepsin): 56% | remaining at 0.5 h (pepsin): 44% | remaining at 1 h (pepsin): 37% | remaining at 2 h (pepsin): 29% | remaining at 4 h (pepsin): 21% | remaining at 8 h (pepsin): 16% | remaining at 12 h (pepsin): 6% | remaining at 24 h (pepsin): 2% | half-life (in vitro [5]): 1.35 h | remaining at 10 min (in vitro [5]): 79.4% | remaining at 0.5 h (in vitro [5]): 62.8% | remaining at 1 h (in vitro [5]): 56.2% | remaining at 2 h (in vitro [5]): 38.5% | remaining at 4 h (in vitro [5]): 31.9% | remaining at 8 h (in vitro [5]): 19.6% | remaining at 12 h (in vitro [5]): 11.2% | remaining at 24 h (in vitro [5]): 5.8% | logD (physchem): 1.24 | microsomal CLint (in vitro [6]): 47 µL/min/mg | remaining at 5 min (in vitro [6]): 96% | remaining at 10 min (in vitro [6]): 71% | remaining at 20 min (in vitro [6]): 61% | remaining at 0.5 h (in vitro [6]): 50% | remaining at 0.75 h (in vitro [6]): 40% | remaining at 1 h (in vitro [6]): 20% | fraction unbound (in vitro [4]): 0.03 | % solubility [7]: 22% | Half lives (human liver microsomes): 29.5

CC(C)C[C@@H]1NC(=O)[C@H](Cc2ccc(O)cc2)NC(=O)[C@H]2CCCN2C(=O)[C@H](CC(C)C)N(C)C(=O)[C@H](CC(C)C)NC(=O)[C@@H](CC(C)C)NC1=O [10i] (cyclo(L[NMeL][dP]YL[dL]))
Papp ([1]; Pe Avg): 3.2 ×10⁻⁶ cm/s | half-life (in vitro [3]): 19 h | remaining at 2 h (in vitro [3]): 92% | remaining at 4 h (in vitro [3]): 83% | remaining at 8 h (in vitro [3]): 74% | remaining at 16 h (in vitro [3]): 58% | remaining at 24 h (in vitro [3]): 38% | remaining at 48 h (in vitro [3]): 26% | remaining at 72 h (in vitro [3]): 4% | half-life (pepsin): 0.292 h | remaining at 2 min (pepsin): 86% | remaining at 10 min (pepsin): 58% | remaining at 20 min (pepsin): 47% | remaining at 0.5 h (pepsin): 30% | remaining at 1 h (pepsin): 17% | remaining at 2 h (pepsin): 11% | remaining at 4 h (pepsin): 5% | remaining at 8 h (pepsin): 2.5% | remaining at 12 h (pepsin): 1% | half-life (in vitro [5]): 1.83 h | remaining at 10 min (in vitro [5]): 90% | remaining at 0.5 h (in vitro [5]): 81% | remaining at 1 h (in vitro [5]): 68% | remaining at 2 h (in vitro [5]): 46% | remaining at 4 h (in vitro [5]): 32% | remaining at 8 h (in vitro [5]): 6% | remaining at 12 h (in vitro [5]): 3% | logD (physchem): 1.11 | microsomal CLint (in vitro [6]): 113 µL/min/mg | remaining at 2 min (in vitro [6]): 93% | remaining at 10 min (in vitro [6]): 54% | remaining at 20 min (in vitro [6]): 53% | remaining at 0.5 h (in vitro [6]): 19% | remaining at 0.75 h (in vitro [6]): 12% | remaining at 1 h (in vitro [6]): 2.73% | fraction unbound (in vitro [4]): 0.38 | Half lives (human liver microsomes): 12.6

CC(C)C[C@@H]1NC(=O)[C@H](Cc2ccc(O)cc2)NC(=O)[C@H]2CCCN2C(=O)[C@H](CC(C)C)NC(=S)[C@H](CC(C)C)NC(=O)[C@@H](CC(C)C)NC1=O [10b] (cyclo(L[dL][X5][dP]Y))
Pe Avg [1]: 4.3 ×10⁻⁶ cm/s | Pe set1 [1]: 4.84 ×10⁻⁶ cm/s | Pe set2 [1]: 3.05 ×10⁻⁶ cm/s | Pe set3 [1]: 5.14 ×10⁻⁶ cm/s | Papp ([1]; Pe Avg): 4.3 ×10⁻⁶ cm/s | logD heptane ethylene glycol [2]: 0.62 | half-life (in vitro [3]): 23 h | remaining at 1 h (in vitro [3]): 91% | remaining at 3 h (in vitro [3]): 85% | remaining at 5 h (in vitro [3]): 80% | remaining at 7 h (in vitro [3]): 76% | remaining at 9 h (in vitro [3]): 74% | remaining at 12 h (in vitro [3]): 59% | remaining at 24 h (in vitro [3]): 47% | remaining at 36 h (in vitro [3]): 33% | remaining at 48 h (in vitro [3]): 25% | remaining at 60 h (in vitro [3]): 15% | remaining at 72 h (in vitro [3]): 7% | half-life (pepsin): 0.283 h | remaining at 5 min (pepsin): 72% | remaining at 10 min (pepsin): 57% | remaining at 20 min (pepsin): 47% | remaining at 0.5 h (pepsin): 38% | remaining at 1 h (pepsin): 33% | remaining at 2 h (pepsin): 27% | remaining at 4 h (pepsin): 23% | remaining at 8 h (pepsin): 17% | remaining at 12 h (pepsin): 10% | remaining at 24 h (pepsin): 5% | half-life (in vitro [5]): 1.6 h | remaining at 10 min (in vitro [5]): 71.7% | remaining at 0.5 h (in vitro [5]): 53.6% | remaining at 1 h (in vitro [5]): 47.1% | remaining at 2 h (in vitro [5]): 39% | remaining at 4 h (in vitro [5]): 32.1% | remaining at 8 h (in vitro [5]): 26.6% | remaining at 12 h (in vitro [5]): 16.6% | remaining at 24 h (in vitro [5]): 10.3% | logD (physchem): 1.42 | microsomal CLint (in vitro [6]): 73 µL/min/mg | remaining at 5 min (in vitro [6]): 85% | remaining at 10 min (in vitro [6]): 65% | remaining at 20 min (in vitro [6]): 49% | remaining at 0.5 h (in vitro [6]): 34% | remaining at 0.75 h (in vitro [6]): 28% | remaining at 1 h (in vitro [6]): 15% | fraction unbound (in vitro [4]): 0.31 | % solubility [7]: 26% | Half lives (human liver microsomes): 19.0
